Experimental data as given in patent publication US20160193216A1 (Nimbus Iris, Inc., priority 2012, published 2016).
Where two headings read alike, the source gives them in different places.

Columns and labels:
[1] = test system: GCB DLBCL Cells; experiment: sensitization of GCB DLBCL cells by BTK knockdown; type: cell-based; conditions: BTK knockdown (FIG. 10)
[2] = test system: THP-1 cells; experiment: LPS induced cytokine (TNFα and IL8) production assay in THP-1 cells; type: cell-based; conditions: Homo sapiens, 300 ng/mL LPS
Summary of the method: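 THP-1 cells (100,000/well) pre-incubated 1 hour with compound in 0.3% DMSO, then stimulated with 300 ng/mL LPS. TNFα and IL8 in supernatant measured by HTRF at 5 hours; IL8 and viability also at 16 hours.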

[3] = test system: hPBMC; experiment: In vitro LPS/R848/CpG/IL-1β-induced cytokine production assay in hPBMC; type: cell-based; conditions: Homo sapiens
Protocol: In Vitro LPS/R848/CpG-Induced Cytokine Production Assays in hPBMC or Whole Blood
Compounds of the present invention were also studied in in vitro LPS/R848/CpG-induced cytokine production assays. Exemplary protocols follow.
[…] Cells were seeded in a 96-well plate with 130 ul/well of the cell suspension according to the plate map. 9 ul of 30 mM compound solution was added into the wells in the assigned rows, then serial solutions with 4× dilutions were made. That is, add 9 uL of 100% DMSO into each of the rest wells and take 3 uL of compound solution from the one-step higher concentration solution and mix well with the DMSO. For the second compound master plate, 196 uL of the growth medium (no serum media) were added into each of the wells and 4 uL of the compound solution from the first compound master plate was added and mixed with the media. Cells were treated for 0.5 h by adding 20 uL of the compound and the control solutions prepared in the second master plate to each well according to the plate map. […] Plates were sealed with sealing films and the plates were centrifuged at 3000 rpm at 4 degrees C. for 5 min. The supernatants were transferred, and 100 ul of working Capture antibody solution was added to each well. The plates were sealed and incubated overnight at RT. IL-6, IFN-α or TNF-α detection antibody labeled with biotin: Added 100 uL of the Detection Antibody solution to each well. Covered the plate and incubated for 2 h at RT. Added 100 uL of Streptavidin-HRP solution to each well. Covered the plate and incubate for 20 min at RT in dark. Added 100 uL of Substrate Solution to each well. Incubated for 20 min at RT in dark. Added 50 uL of Stop Solution to each well. Gently tapped the plate to ensure thorough mixing. Determined the optical density of each well immediately, using a microplate reader set to 450 nm and also read at 540 nm or 570 nm for correction if wavelength correction is not available.

[4] = test system: MSU-induced gout; experiment: In vivo murine air pouch model of human gout (MSU); conditions: Balb/c mice, oral twice a day for six days, 10, 30 or 100 mg/kg
Protocol: In Vivo Murine Air Pouch Model of Human Gout Compounds of the present invention were also evaluated in mice in an in vivo efficacy model for inhibiting monosodium urate (MSU) induced model of gout. An exemplary protocol for this assay follows. A sterile air pouch was created in Balb/c mice. I-67 was administered orally to the mice twice a day for six days at doses of either 10, 30 or 100 mg/kg. Following the last dose the mice were anesthetized and the air pouch was injected with a suspension of monosodium urate (MSU) to induce the inflammatory response. Four hours after the injection the air pouch exudate was collected and the number of white blood cells was measured.

[5] = test system: ABC DLBCL cell lines; experiment: Cell viability assay, combination with ibrutinib; type: cell-based
Protocol: Compounds of the present invention were also evaluated in a cell viability assay.

NC(=O)C[C@H]1CCc2sc3ncnc(O[C@H]4CC[C@H](N5CCOCC5)CC4)c3c21 [Compound I-67, 2-((R)-4-(((1r,4R)-4-morpholinocyclohexyl)oxy)-6,7-dihydro-5H-cyclopenta[4,5]thieno[2,3-d]pyrimidin-5-yl)acetamide]
sensitization of GCB DLBCL Cells to compound by BTK Knockdown [1]: lack of sensitization
IC50 ([2]; read-out: IL8 production IC50): ≤ 500 nM
IC50 ([2]; read-out: TNFα production IC50): 500 to 1000 nM
IC50 ([3]; CpG 0.1 uM, read-out: IFN-α production IC50): 500 to 1000 nM
IC50 ([3]; CpG 0.5 uM, read-out: TNF-α production IC50): 250 to 500 nM
IC50 ([3]; IL-1β 1 ng/mL, read-out: IL-6 production IC50): 250 to 500 nM
IC50 ([3]; LPS 0.01 ug/mL, read-out: IL-6 production IC50): ≤ 250 nM
IC50 ([3]; LPS 0.01 ug/mL, read-out: TNF-α production IC50): 250 to 500 nM
IC50 ([3]; R848 1 uM, read-out: TNF-α production IC50): 500 to 1000 nM
Efficacy in MSU-induced gout (white blood cell counts in air pouch exudate) [4]: efficacious
Killing of ABC DLBCL cells in combination with ibrutinib [5]: Synergistic killing
